The structures appear in SMILES notation. In brackets after ≈: the same amount, converted by molar mass. Activity calls are given as the source filed them. The calls are words filed in the database; no cut-off is given here.

Series [1] concerns Trypanosoma brucei brucei. Briefly: microbe, parasite or virus in culture. The note with it: Lister 427, 70 h.
Description: Antitrypanosomal activity against bloodstream Trypanosoma brucei brucei Lister 427 after 70 hrs by resazurin assay
The test system of the next series is HepG2. Briefly: (§1) Cytotoxicity against human HepG2 cells after 48 hrs by Celltiter-Glo assay. Format: cell-based. Particulars: hepg2, 48 h.
Series [2] is described as follows: Solubility of compound in phosphate buffer at pH 7.4 after 1 hr. Format: physicochemical.
In series [3] the test system is Trypanosoma brucei brucei. Briefly: Inhibition of receptor-mediated endocytosis in Trypanosoma brucei brucei Lister 427 assessed as decrease in transferrin uptake at 2 X EC50 after 18 hrs. It counts as functional, organism-based.
The subject of series [4] is Trypanosoma brucei brucei. Briefly: Effect on sphingomylein level in Trypanosoma brucei brucei Lister 427 at 200 nM after 12 hrs by ES-MS analysis. It counts as functional, organism-based.
Series [5] has as its system Trypanosoma brucei brucei. Briefly: Antitrypanosomal activity against bloodstream Trypanosoma brucei brucei Lister 427 assessed as decrease in number of cell at G1 phase after 18 hrs by PI staining based flow cytometer. It counts as functional, organism-based. For orientation: In flow cytometry, cells or beads pass a laser one at a time.
Series [6] relates to Trypanosoma brucei brucei. Briefly: Decrease in phosphotidyl inositol phosphate level in Trypanosoma brucei brucei Lister 427 at 200 nM after 12 hrs by ES-MS analysis. Format: functional, organism-based.
The nature of series [7]: Lipophilicity, log D of the compound at pH 7.4 by HPLC analysis. It counts as physicochemical. Particulars: buffer.
Series [8] can be described thus: Apparent permeability across artificial membrane after 3 hrs by HPLC analysis. Format: physicochemical.
In series [9] the test system is Trypanosoma brucei brucei. Briefly: Effect on phosphotidyl inositol level in Trypanosoma brucei brucei Lister 427 at 200 nM after 12 hrs by ES-MS analysis. It counts as functional, organism-based.
For series [10], the system named is Trypanosoma brucei brucei. Briefly: Effect on phosphatidylcholine level in Trypanosoma brucei brucei Lister 427 at 200 nM after 12 hrs by ES-MS analysis. It counts as functional, organism-based.
Series [11] deals with Serine/threonine-protein kinase mTOR (Homo sapiens, UniProt P42345). Briefly: Inhibition of human recombinant mTOR assessed as inhibition of 4EBP1 phosphorylation after 30 mins by TR-FRET analysis. (Time-resolved FRET reads energy transfer from a long-lived donor to a nearby acceptor.)
The target in series [12] is Phosphatidylinositol 4,5-bisphosphate 3-kinase catalytic subunit beta isoform (Homo sapiens, UniProt P42338). Briefly: Inhibition of human PI3K-beta assessed as inhibition of […] after 1 hr by TR-FRET analysis.
Sequence of Phosphatidylinositol 4,5-bisphosphate 3-kinase catalytic subunit beta isoform (P42338 whole entry, canonical isoform): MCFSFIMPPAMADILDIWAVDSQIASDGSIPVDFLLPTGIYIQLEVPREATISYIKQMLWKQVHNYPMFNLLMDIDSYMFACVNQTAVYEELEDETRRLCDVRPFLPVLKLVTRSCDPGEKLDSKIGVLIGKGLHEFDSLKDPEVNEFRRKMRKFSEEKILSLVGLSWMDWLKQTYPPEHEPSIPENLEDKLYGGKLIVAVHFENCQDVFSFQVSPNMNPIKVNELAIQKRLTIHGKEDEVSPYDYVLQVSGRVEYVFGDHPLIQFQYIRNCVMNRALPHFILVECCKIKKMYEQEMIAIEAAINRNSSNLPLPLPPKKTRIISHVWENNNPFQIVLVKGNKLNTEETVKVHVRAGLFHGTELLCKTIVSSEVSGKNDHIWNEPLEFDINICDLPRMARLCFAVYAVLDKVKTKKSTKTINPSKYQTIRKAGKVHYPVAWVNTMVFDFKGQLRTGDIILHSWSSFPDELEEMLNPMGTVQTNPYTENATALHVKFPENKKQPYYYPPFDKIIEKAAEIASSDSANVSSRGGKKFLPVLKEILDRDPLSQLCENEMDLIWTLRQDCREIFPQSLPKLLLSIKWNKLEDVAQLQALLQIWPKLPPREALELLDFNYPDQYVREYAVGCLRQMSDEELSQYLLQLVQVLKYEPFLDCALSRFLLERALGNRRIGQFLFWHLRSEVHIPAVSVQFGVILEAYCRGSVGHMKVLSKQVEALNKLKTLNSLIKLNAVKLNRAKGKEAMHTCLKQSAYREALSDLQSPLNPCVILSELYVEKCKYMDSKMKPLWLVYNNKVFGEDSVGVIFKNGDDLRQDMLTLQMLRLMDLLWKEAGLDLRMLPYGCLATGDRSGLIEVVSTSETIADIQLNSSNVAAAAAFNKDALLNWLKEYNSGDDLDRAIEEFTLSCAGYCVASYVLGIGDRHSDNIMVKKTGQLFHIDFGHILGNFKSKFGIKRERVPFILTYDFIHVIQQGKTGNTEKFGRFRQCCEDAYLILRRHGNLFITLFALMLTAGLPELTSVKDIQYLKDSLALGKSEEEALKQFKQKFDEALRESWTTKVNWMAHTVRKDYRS
The nature of a further series: in vitro. Particulars: human, HepG2 cells.
The target in series [13] is Phosphatidylinositol 4,5-bisphosphate 3-kinase catalytic subunit alpha isoform (Homo sapiens, UniProt P42336). Briefly: Inhibition of human PI3K-alpha assessed as inhibition of […] after 1 hr by TR-FRET analysis.
Sequence of Phosphatidylinositol 4,5-bisphosphate 3-kinase catalytic subunit alpha isoform (P42336 whole entry, canonical isoform): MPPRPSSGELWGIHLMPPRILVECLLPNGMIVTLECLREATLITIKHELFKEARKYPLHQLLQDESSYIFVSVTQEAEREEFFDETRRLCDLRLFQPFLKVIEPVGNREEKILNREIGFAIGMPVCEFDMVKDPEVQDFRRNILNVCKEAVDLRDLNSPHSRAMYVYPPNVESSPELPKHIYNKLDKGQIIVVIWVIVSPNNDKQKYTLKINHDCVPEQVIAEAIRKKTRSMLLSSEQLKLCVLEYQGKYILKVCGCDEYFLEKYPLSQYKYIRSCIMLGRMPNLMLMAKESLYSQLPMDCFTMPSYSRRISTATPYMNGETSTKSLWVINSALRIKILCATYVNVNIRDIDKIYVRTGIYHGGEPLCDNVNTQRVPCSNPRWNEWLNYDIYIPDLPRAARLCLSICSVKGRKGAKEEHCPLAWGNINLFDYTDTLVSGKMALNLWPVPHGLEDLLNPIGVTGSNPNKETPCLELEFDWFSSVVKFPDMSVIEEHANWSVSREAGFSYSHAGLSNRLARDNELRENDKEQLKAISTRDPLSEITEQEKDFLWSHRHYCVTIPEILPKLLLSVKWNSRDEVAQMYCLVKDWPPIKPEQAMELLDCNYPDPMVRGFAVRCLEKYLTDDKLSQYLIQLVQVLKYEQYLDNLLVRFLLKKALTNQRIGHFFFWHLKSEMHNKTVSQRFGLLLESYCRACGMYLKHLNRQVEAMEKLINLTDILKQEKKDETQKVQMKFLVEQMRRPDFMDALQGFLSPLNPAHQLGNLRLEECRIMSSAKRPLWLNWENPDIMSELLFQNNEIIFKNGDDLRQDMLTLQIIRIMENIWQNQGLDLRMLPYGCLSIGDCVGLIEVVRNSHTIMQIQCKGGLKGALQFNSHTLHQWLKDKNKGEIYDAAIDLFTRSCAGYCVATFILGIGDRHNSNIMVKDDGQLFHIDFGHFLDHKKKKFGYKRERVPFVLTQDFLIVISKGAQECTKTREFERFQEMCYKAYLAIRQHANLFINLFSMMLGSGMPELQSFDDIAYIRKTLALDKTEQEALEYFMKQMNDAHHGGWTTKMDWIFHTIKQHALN
The nature of series [14]: as §1. Format: cell-based. Particulars: HepG2 cells, read-out: TC50.
The target in series [15] is Phosphatidylinositol 4,5-bisphosphate 3-kinase catalytic subunit gamma isoform (Homo sapiens, UniProt P48736). Briefly: Inhibition of human PI3K-gamma assessed as inhibition of […] after 1 hr by TR-FRET analysis.
Sequence of Phosphatidylinositol 4,5-bisphosphate 3-kinase catalytic subunit gamma isoform (P48736 whole entry, canonical isoform): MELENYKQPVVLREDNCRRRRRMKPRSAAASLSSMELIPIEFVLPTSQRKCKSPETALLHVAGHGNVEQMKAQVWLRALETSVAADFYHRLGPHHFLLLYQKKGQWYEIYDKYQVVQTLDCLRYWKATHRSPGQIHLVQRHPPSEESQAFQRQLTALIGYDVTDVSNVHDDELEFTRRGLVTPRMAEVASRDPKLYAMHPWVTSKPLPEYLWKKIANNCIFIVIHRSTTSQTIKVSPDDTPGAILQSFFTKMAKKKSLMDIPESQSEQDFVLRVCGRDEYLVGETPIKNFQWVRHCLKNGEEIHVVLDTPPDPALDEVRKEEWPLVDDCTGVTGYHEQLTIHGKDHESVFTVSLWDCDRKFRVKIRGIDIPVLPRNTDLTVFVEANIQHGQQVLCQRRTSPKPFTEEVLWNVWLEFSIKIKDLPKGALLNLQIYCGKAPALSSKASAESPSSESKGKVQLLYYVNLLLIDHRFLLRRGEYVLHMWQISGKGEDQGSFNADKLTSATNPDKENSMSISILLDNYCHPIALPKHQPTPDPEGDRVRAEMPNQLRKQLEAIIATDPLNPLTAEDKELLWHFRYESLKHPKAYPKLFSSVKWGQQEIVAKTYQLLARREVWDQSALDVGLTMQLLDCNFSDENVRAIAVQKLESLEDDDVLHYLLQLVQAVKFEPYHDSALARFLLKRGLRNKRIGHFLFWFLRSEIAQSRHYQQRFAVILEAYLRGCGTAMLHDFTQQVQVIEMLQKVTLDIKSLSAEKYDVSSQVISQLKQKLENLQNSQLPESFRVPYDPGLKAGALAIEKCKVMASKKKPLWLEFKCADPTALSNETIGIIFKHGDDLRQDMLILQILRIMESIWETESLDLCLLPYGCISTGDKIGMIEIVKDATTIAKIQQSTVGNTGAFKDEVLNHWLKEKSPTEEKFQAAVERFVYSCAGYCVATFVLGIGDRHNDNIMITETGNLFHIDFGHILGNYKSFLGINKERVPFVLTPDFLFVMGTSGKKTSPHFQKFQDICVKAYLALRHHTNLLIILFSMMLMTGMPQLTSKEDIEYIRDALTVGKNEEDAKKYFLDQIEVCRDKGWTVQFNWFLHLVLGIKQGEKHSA
The target of series [16] is T1, Phosphatidylinositol 4,5-bisphosphate 3-kinase catalytic subunit delta isoform (Homo sapiens, UniProt O00329).
T1 sequence (O00329 whole entry): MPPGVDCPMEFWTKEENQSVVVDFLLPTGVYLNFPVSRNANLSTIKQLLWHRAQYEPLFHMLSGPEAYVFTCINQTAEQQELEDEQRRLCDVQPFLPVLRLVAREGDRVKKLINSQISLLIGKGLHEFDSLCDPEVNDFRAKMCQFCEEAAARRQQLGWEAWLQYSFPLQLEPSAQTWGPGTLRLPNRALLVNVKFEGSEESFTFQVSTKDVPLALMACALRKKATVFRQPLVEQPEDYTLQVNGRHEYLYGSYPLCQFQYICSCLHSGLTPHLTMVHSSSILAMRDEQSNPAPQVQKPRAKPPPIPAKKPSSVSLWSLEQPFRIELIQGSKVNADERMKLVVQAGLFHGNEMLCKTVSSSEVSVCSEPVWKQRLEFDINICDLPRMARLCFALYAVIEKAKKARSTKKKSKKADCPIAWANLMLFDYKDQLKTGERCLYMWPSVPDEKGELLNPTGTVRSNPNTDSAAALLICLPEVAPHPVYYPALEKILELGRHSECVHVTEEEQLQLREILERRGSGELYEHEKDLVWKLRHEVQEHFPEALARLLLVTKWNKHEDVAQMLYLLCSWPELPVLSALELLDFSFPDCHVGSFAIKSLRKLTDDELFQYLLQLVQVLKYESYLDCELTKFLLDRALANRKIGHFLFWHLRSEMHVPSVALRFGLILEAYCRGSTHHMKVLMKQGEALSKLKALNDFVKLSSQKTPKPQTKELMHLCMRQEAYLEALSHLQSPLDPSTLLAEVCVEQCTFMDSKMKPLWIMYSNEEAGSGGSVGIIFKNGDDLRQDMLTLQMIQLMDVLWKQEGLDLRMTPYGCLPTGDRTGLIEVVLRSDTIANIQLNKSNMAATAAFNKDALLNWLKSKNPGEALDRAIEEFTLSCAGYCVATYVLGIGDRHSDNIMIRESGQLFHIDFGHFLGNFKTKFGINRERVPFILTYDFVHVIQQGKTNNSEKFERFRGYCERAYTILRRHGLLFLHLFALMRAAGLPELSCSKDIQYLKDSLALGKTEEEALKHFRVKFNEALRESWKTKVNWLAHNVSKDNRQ
Briefly: Inhibition of human PI3K-delta assessed as inhibition of […] after 1 hr by TR-FRET analysis.

Description for in vitro: Selectivity ratio TC50 for human HepG2 cells to EC50 for Trypanosoma brucei brucei Lister 427

As a reminder, the EC50 is the concentration at which the effect is half-maximal. Read a high EC50 as weaker potency. `Cn1c(=O)n(-c2ccc(C#N)cc2)c2c3cc(-c4ccncc4)ccc3ncc21`: the midpoint of the response in series [1], the EC50, lay at 0.072 µM. In addition, the TC50 result with HepG2 is given as “ND(Insoluble)”.

What is called kinetic solubility is solubility judged after dilution from a stock solution rather than from solid. Broadly, the logD is lipophilicity at a set pH, counting ionised and neutral species. Higher therefore signals a more lipophilic compound. On to `Cn1c(=O)n(-c2ccc(C(C)(C)C#N)cc2)c2c3cc(-c4cnc5ccccc5c4)ccc3ncc21` [DACTOLISIB], for which the kinetic solubility at 1 h in [2] was 19 µM (≈ 8.92 µg/mL). Also, the inhibition result in [3] and in series [6] was “Active” in each case. Further, the outcome in [4] and in series [10] was inactive. Moreover, the inhibition result in [5] was “inactive”. The TC50 result with HepG2 is reported as “ND(Insoluble)”. The pH-dependent lipophilicity (logD) in series [7] amounted to 6.44. In addition, in series [8], the permeability result was “ND(Insoluble)”. Also, the outcome in series [9] was Active.

For orientation: IC50 means the midpoint of a concentration-inhibition curve. For `Cc1ccc(-n2c(=O)n(C)c3cnc4ccc(-c5ccncc5)cc4c32)cc1`, the IC50 in [11] came to 0.468 µM; in [12], 31.6 µM; in series [13] it was 0.631 µM; in series [15], 0.251 µM; in series [16] it was 2.51 µM. Further, in series [2], the solubility (kinetic) at 1 h amounted to 17 µM (≈ 6.23 µg/mL). Also, a half-maximal effect in [1] (EC50) was put at 0.202 µM. The inhibition result in series [3] and in [6] was “Active” in each case. The outcome in [4] and in series [10] was inactive. Also, the selectivity ratio in the series “in vitro” was 24. Also, the inhibition result in [5] was “inactive”. The CC50 at 48 h in [14] amounted to 4.78 µM. Moreover, the logD in series [7] is 4.95. In series [8], the permeability is 47 ×10⁻⁶ cm/s. Also, in series [9], the outcome was Active.

`COc1ccc(-n2c(=O)n(C)c3cnc4ccc(-c5ccncc5)cc4c32)cc1`: the IC50 was determined as 0.38 µM in series [11]; 7.94 µM in [12]; 0.501 µM in [13]; 0.316 µM in series [15]; 2.51 µM in series [16]. The kinetic solubility at 1 h in series [2] worked out at 22 µM (≈ 8.41 µg/mL). The midpoint of the response in [1], the EC50, lay at 0.166 µM. Besides, the inhibition result in series [3] and in [6] was “Active” in each case. In addition, the outcome in series [4] and in series [10] was inactive. The selectivity ratio in the series “in vitro” amounted to 67. Further, the inhibition entry in [5] is “inactive”. Also, the CC50 at 48 h in [14] turned out to be 11.2 µM. Moreover, the logD in series [7] was found to be 5.32. Further, the permeability in series [8] was 86 ×10⁻⁶ cm/s. Moreover, in series [9], the result was Active.

These data come from ChEMBL document CHEMBL3286093 (J Med Chem, 2014).
